From ChEMBL document CHEMBL1130385, “Synthesis and biological activities of conformationally restricted, tricyclic nonclassical antifolates as inhibitors of dihydrofolate reductases” (J Med Chem, 1997) come the findings set out here.

The structures appear in SMILES notation.

The target in test [1] is T1, Bifunctional dihydrofolate reductase-thymidylate synthase (Toxoplasma gondii, UniProt Q07422).
T1 sequence (Q07422 whole entry): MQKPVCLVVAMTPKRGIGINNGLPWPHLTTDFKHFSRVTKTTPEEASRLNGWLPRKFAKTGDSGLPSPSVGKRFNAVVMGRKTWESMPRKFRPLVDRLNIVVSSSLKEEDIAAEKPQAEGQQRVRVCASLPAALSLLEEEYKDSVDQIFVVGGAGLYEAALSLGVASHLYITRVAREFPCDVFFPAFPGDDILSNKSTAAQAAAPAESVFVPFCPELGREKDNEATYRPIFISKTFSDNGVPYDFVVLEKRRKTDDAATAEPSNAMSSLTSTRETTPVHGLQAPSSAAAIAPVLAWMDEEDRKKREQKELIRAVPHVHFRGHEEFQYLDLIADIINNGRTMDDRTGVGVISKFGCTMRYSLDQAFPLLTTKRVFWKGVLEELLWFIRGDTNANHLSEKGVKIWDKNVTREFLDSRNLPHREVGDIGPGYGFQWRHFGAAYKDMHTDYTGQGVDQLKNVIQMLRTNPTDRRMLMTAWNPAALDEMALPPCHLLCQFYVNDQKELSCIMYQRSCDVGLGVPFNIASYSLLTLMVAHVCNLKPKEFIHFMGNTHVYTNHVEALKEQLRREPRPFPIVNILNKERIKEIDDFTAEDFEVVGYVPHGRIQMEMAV
Put plainly: Inhibitory concentration against Toxoplasma gondii Dihydrofolate reductase.

Test [2] has as its target T2, Dihydrofolate reductase (Rattus norvegicus, UniProt Q920D2).
T2 sequence (Q920D2 whole entry): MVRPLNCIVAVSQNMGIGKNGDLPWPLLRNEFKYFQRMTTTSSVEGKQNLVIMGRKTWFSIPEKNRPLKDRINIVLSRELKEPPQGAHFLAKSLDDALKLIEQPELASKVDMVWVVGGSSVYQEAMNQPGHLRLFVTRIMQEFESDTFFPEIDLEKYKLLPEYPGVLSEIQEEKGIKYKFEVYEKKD
Description: Inhibitory concentration against Rat liver Dihydrofolate reductase

The target in test [3] is T3, Dihydrofolate reductase (Pneumocystis carinii, UniProt P16184).
T3 sequence (P16184 whole entry): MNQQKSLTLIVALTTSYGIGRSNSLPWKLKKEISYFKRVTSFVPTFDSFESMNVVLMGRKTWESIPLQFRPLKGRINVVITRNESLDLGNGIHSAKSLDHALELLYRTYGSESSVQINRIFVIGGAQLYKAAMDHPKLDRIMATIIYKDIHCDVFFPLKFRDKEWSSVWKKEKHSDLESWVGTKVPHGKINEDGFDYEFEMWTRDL
Description: Inhibitory concentration against Pneumocystis carinii Dihydrofolate reductase

For the compound `COc1cc(N2C=C3C(=O)N=c4nc(N)nc(N)c4=C3CC2)cc(OC)c1OC`, the IC50 in test [1] came out at 1120 nM; against Dihydrofolate reductase [2] it was 240 nM.
On Dihydrofolate reductase [2], `COc1c(Cl)c(-n2ccc3c4c(N)nc(N)nc4nc(=O)c-3c2)c(Cl)c(OC)c1OC` registered an IC50 of 500 nM.
`COc1cc(N2CCC3c4c(N)nc(N)nc4NCC3C2)cc(OC)c1OC` (centres undefined): the IC50 in test [1] stood at 290 nM; against Dihydrofolate reductase [2] it was 160 nM.
Regarding `COc1cc(N2CCc3c(c(=O)[nH]c4nc(N)nc(N)c34)C2)cc(OC)c1OC`, the IC50 against Dihydrofolate reductase [2] and against Dihydrofolate reductase [3] was > 5000 nM throughout.
For `COc1cc(N2C=Cc3c(cnc4nc(N)nc(N)c34)C2)cc(OC)c1OC`, the IC50 in test [1] is 760 nM; on Dihydrofolate reductase [2], 470 nM.
Consider `COc1cc(-n2ccc3c4c(N)nc(N)nc4nc(=O)c-3c2)cc(OC)c1OC`, for which the IC50 in test [1] amounted to 520 nM; against Dihydrofolate reductase [2], 86 nM; against Dihydrofolate reductase [3], 2400 nM.
In the case of `COc1cc(N2CCc3c(cnc4nc(N)nc(N)c34)C2)cc(OC)c1OC`, the IC50 on Dihydrofolate reductase [2] was > 2700 nM; against Dihydrofolate reductase [3], > 2270 nM.
